Laboratory results taken from patent publication US10421755B2, “Salts of aza-bicyclic di-aryl ethers and methods to make them or their precursors” (Novartis AG, priority 2011, dated 2019).

Experiment: Pharmacokinetics in rats after oral administration
Format: in vivo, Wistar rats
Conditions: male, Wistar, rat, in vivo, po, 10 mg/kg; for Tmax: Tmax (h)
Experimental: If a salt forming agent is used (e.g. fumarate), a corresponding higher amount of the salt will be used to achieve the intended dosing.
Both compounds were dissolved in Klucel™ (0.5% in water) and were orally administered by gavage (5 ml/kg) to conscious rats (n=8, cross-over design).
K3-EDTA blood (˜0.2 ml) was collected by puncture of a sublingual vein under light isoflurane anesthesia at the following time points: 0.25, 0.5, 1, 2, 3, 4, 6, 8, 24 h post dose. Immediately after sampling, blood samples were put on ice and were processed to plasma by centrifugation at 4° C. within 15 min after sampling (1000 g, 10 min, 4° C.) to obtain ˜100 μl plasma/sample. All plasma samples were stored at −80° C. until analysis. Since the PK study was performed in a cross-over design, a recovery period of approximately 2 weeks took place before the next treatment/blood sampling was performed.
The determination of compounds in plasma was done by LC-MS/MS using electrospray ionization.

Cc1ccc(-c2ccc(O[C@H]3CN4CCC3CC4)cn2)cc1 [Compound A, (R)-3-(6-(4-methylphenyl)-pyridin-3-yloxy)-1-aza-bicyclo[2.2.2]octane]
Cmax/Dose (ng/mL)/(mg/kg), Mean All: 11.3 (ng/mL)/(mg/kg) | AUC(0-t) (AUClast (h · ng/mL), Mean All): 200 ± 62 ng·h/mL | Cmax (Cmax (ng/mL), Mean All): 112 ± 40 ng/mL | Tmax: 15 min | Tmax (all rats): 15 to 30 min | half-life (T½ (h), Mean All): 310 min
